Activity calls are given as the source filed them. No cut-off for these calls is given here.
Experiments:
MCF7 [1] = assay: Cell cycle arrest in human MCF7 cells assessed as accumulation at S phase at 3 uM after 24 hrs by propidium iodide/RNase A staining-based flow cytometric analysis (reference value: 17.17%); assay type: functional
MDA-MB-231 [2] = assay: Antiproliferative activity against human MDA-MB-231 cells assessed as reduction in cell viability after 24 to 72 hrs by MTT assay; assay type: functional, cell-based
MCF7 [3] = assay: Cell cycle arrest in human MCF7 cells assessed as accumulation at G2 phase at 12 uM after 24 hrs by propidium iodide/RNase A staining-based flow cytometric analysis (reference value: 30.62%); assay type: functional
[4] = target: Epidermal growth factor receptor (Homo sapiens) (UniProt P00533); assay: Inhibition of EGFR in human MDA-MB-231 cells assessed as reduction in phosphorylated AKT expression after 8 hrs by Western blot analysis; assay type: cell-based
Sequence of Epidermal growth factor receptor (Homo sapiens) (P00533 whole entry): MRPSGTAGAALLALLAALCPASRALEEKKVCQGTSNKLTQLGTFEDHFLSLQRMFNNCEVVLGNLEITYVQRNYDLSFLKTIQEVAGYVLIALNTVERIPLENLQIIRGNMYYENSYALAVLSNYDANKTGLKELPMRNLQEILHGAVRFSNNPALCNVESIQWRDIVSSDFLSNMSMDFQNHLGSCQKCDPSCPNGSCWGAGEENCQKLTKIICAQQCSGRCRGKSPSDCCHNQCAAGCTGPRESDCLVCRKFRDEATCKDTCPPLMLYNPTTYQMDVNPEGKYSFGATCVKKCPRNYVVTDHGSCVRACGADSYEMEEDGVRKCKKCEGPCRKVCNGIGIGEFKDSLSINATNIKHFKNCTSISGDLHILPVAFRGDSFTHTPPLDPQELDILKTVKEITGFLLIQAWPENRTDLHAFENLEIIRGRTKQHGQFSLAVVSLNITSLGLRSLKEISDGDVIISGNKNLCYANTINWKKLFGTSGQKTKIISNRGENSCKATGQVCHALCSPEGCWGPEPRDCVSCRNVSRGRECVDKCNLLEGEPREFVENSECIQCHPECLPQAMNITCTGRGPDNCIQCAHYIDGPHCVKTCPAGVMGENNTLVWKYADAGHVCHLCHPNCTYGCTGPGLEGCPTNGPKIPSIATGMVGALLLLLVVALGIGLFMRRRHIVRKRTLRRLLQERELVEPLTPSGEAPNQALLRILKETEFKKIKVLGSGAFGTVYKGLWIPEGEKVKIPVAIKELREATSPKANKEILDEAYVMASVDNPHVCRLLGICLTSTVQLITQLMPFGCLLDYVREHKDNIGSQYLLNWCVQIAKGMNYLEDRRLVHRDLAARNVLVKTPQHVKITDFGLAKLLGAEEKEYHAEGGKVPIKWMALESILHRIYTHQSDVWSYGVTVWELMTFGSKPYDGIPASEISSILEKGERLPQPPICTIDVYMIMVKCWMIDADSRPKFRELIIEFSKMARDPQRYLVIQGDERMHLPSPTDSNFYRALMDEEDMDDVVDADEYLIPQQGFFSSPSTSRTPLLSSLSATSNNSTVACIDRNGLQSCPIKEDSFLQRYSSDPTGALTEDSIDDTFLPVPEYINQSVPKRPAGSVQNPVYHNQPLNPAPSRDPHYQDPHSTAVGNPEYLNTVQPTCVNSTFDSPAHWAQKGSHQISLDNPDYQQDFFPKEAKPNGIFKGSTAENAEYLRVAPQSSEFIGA

[5] = target: Epidermal growth factor receptor (Homo sapiens) (UniProt P00533); assay: Inhibition of EGFR phosphorylation at Y992 residues in human MDA-MB-231 cells after 8 hrs by Western blot analysis; assay type: cell-based
MDA-MB-231 [6] = assay: Cell cycle arrest in human MDA-MB-231 cells assessed as accumulation at G2 phase at 12 uM after 24 hrs by propidium iodide/RNase A staining-based flow cytometric analysis (reference value: 27.76%); assay type: functional
MDA-MB-231 [7] = assay: Induction of apoptosis in human MDA-MB-231 cells assessed as viable cells at 4 uM after 48 hrs by Annexin-V-FITC/propidium iodide staining based flow cytometry (reference value: 92.1%); assay type: functional; conditions: MDA-MB-231, 48 h, read-out: Activity
MCF7 [8] = assay: Induction of apoptosis in human MCF7 cells assessed as early apoptotic cells at 2 uM after 48 hrs by Annexin-V-FITC/propidium iodide staining based flow cytometry (reference value: 3.05%); assay type: functional
MDA-MB-231 [9] = assay: Induction of apoptosis in human MDA-MB-231 cells assessed as late apoptotic cells at 2 uM after 48 hrs by Annexin-V-FITC/propidium iodide staining based flow cytometry (reference value: 2.38%); assay type: functional
[10] = target: Epidermal growth factor receptor (Homo sapiens) (UniProt P00533); assay: Inhibition of EGFR phosphorylation at Y1068 residues in human MCF7 cells after 8 hrs by Western blot analysis; assay type: cell-based
MCF7 [11] = assay: Induction of apoptosis in human MCF7 cells after 48 hrs by Annexin-V-FITC/propidium iodide staining based flow cytometry; assay type: functional, cell-based
MCF7 [12] = assay: Induction of apoptosis in human MCF7 cells assessed as early apoptotic cells at 6 uM after 48 hrs by Annexin-V-FITC/propidium iodide staining based flow cytometry (reference value: 3.05%); assay type: functional
MCF7 [13] = assay: Antiproliferative activity against human MCF7 cells assessed as reduction in cell viability up to 32 uM by MTT assay; assay type: functional, cell-based; conditions: TDE = time-dependent effect
MDA-MB-231 [14] = assay: Cell cycle arrest in human MDA-MB-231 cells assessed as accumulation at G2 phase at 6 uM after 24 hrs by propidium iodide/RNase A staining-based flow cytometric analysis (reference value: 27.76%); assay type: functional
MDA-MB-231 [15] = assay: Induction of apoptosis in human MDA-MB-231 cells assessed as late apoptotic cells at 6 uM after 48 hrs by Annexin-V-FITC/propidium iodide staining based flow cytometry (reference value: 2.38%); assay type: functional
MDA-MB-231 [16] = assay: Effect on total EGFR protein level in human MDA-MB-231 cells up to 12 uM after 8 hrs by Western blot analysis; assay type: ADME, cell-based; conditions: mda-mb-231, 8 h
MDA-MB-231 [17] = assay: Cell cycle arrest in human MDA-MB-231 cells assessed as accumulation at G1 phase at 6 uM after 24 hrs by propidium iodide/RNase A staining-based flow cytometric analysis (reference value: 49.17%); assay type: functional
MDA-MB-231 [18] = assay: Induction of apoptosis in human MDA-MB-231 cells assessed as necrotic cells at 6 uM after 48 hrs by Annexin-V-FITC/propidium iodide staining based flow cytometry (reference value: 1.21%); assay type: functional
MCF7 [19] = assay: Antimigratory activity against human MCF7 cells assessed as reduction in scratch healing after 72 hrs by microscopy based scratch wound assay; assay type: functional, cell-based
MCF7 [20] = assay: Induction of apoptosis in human MCF7 cells assessed as necrotic cells at 2 uM after 48 hrs by Annexin-V-FITC/propidium iodide staining based flow cytometry (reference value: 1.57%); assay type: functional
MDA-MB-231 [21] = assay: Induction of apoptosis in human MDA-MB-231 cells assessed as late apoptotic cells at 4 uM after 48 hrs by Annexin-V-FITC/propidium iodide staining based flow cytometry (reference value: 2.38%); assay type: functional
MDA-MB-231 [22] = assay: Cytotoxicity against human MDA-MB-231 cells assessed as reduction in cell viability after 72 hrs by MTT assay; assay type: functional, cell-based; conditions: MDA-MB-231, 72 h
MCF7 [23] = assay: Effect on total EGFR protein level in human MCF7 cells up to 12 uM after 8 hrs by Western blot analysis; assay type: ADME, cell-based; conditions: mcf7, 8 h
[24] = target: Epidermal growth factor receptor (Homo sapiens) (UniProt P00533); assay: Inhibition of EGFR in human MDA-MB-231 cells assessed as reduction in phosphorylated PI3K expression after 8 hrs by Western blot analysis; assay type: cell-based
MDA-MB-231 [25] = assay: Induction of apoptosis in human MDA-MB-231 cells assessed as increase in Bax expression levels at 3 to 12 uM after 48 hrs by Western blot analysis; assay type: functional, cell-based
MCF7 [26] = assay: Induction of apoptosis in human MCF7 cells assessed as early apoptotic cells at 4 uM after 48 hrs by Annexin-V-FITC/propidium iodide staining based flow cytometry (reference value: 3.05%); assay type: functional
MDA-MB-231 [27] = assay: Induction of apoptosis in human MDA-MB-231 cells after 48 hrs by Annexin-V-FITC/propidium iodide staining based flow cytometry; assay type: functional, cell-based
MDA-MB-231 [28] = assay: Cell cycle arrest in human MDA-MB-231 cells assessed as accumulation at S phase at 3 uM after 24 hrs by propidium iodide/RNase A staining-based flow cytometric analysis (reference value: 23.07%); assay type: functional
MCF7 [29] = assay: Cell cycle arrest in human MCF7 cells assessed as accumulation at G2 phase at 6 uM after 24 hrs by propidium iodide/RNase A staining-based flow cytometric analysis (reference value: 30.62%); assay type: functional
MCF7 [30] = assay: Induction of apoptosis in human MCF7 cells assessed as increase in P53 expression at 3 to 12 uM after 48 hrs by Western blot analysis; assay type: functional, cell-based
MCF7 [31] = assay: Induction of apoptosis in human MCF7 cells assessed as late apoptotic cells at 2 uM after 48 hrs by Annexin-V-FITC/propidium iodide staining based flow cytometry (reference value: 4.28%); assay type: functional
MDA-MB-231 [32] = assay: Antiproliferative activity against human MDA-MB-231 cells assessed as reduction in cell viability up to 32 uM by MTT assay; assay type: functional, cell-based; conditions: TDE = time-dependent effect
MCF7 [33] = assay: Induction of apoptosis in human MCF7 cells assessed as viable cells at 4 uM after 48 hrs by Annexin-V-FITC/propidium iodide staining based flow cytometry (reference value: 91.1%); assay type: functional; conditions: MCF7, 48 h, read-out: Activity
[34] = target: Epidermal growth factor receptor (Homo sapiens) (UniProt P00533); assay: Inhibition of EGFR phosphorylation at Y1045 residues in human MDA-MB-231 cells after 8 hrs by Western blot analysis; assay type: cell-based
MDA-MB-231 [35] = assay: Effect on total PI3K protein level in human MDA-MB-231 cells up to 12 uM after 8 hrs by Western blot analysis; assay type: ADME, cell-based; conditions: mda-mb-231, 8 h
MDA-MB-231 [36] = assay: Induction of apoptosis in human MDA-MB-231 cells assessed as downregulation of Bcl-2 protein expression at 3 to 12 uM after 48 hrs by Western blot analysis; assay type: functional, cell-based
PC-3 = assay: Cytotoxicity against human PC3 cells assessed as reduction in cell viability after 72 hrs by MTT assay; assay type: functional, cell-based; conditions: PC-3, 72 h

## FC(F)(F)c1ccc(CSc2nc(Nc3ccc(C(F)(F)F)cc3)c3ccccc3n2)cc1
MCF7 [1]
  Activity: 20.44%
MDA-MB-231 [2]
  Activity: Dose-dependent effect
MCF7 [3]
  Activity: 14.32%
[4]
  inhibition: Dose-dependent effect
[5]
  inhibition: Dose-dependent effect
MDA-MB-231 [6]
  Activity: 11.69%
MDA-MB-231 [7]
  viability at 4 µM: 71.1%
MCF7 [8]
  Activity: 11.4%
MDA-MB-231 [9]
  Activity: 7.92%
[10]
  inhibition: Dose-dependent effect
MCF7 [11]
  Activity: Dose-dependent effect
MCF7 [12]
  Activity: 17.1%
MCF7 [13]
  Activity: Tde
MDA-MB-231 [14]
  Activity: 21.98%
MDA-MB-231 [15]
  Activity: 20.7%
MDA-MB-231 [16]
  Activity: Non-Toxic
MDA-MB-231 [17]
  Activity: 60.7%
MDA-MB-231 [18]
  Activity: 2.49%
MCF7 [19]
  Activity: Dose-dependent effect
MCF7 [20]
  Activity: 3.28%
MDA-MB-231 [21]
  Activity: 15.3%
MDA-MB-231 [22]
  IC50: 5.46 µM
MCF7 [23]
  Activity: Non-Toxic
[24]
  inhibition: Dose-dependent effect
MDA-MB-231 [25]
  Activity: Active
MCF7 [26]
  Activity: 15%
MDA-MB-231 [27]
  Activity: Dose-dependent effect
MDA-MB-231 [28]
  Activity: 18.96%
MCF7 [29]
  Activity: 15.43%
MCF7 [30]
  Activity: Active
MCF7 [31]
  Activity: 4.26%
MDA-MB-231 [32]
  Activity: Tde
MCF7 [33]
  viability at 4 µM: 76.2%
[34]
  inhibition: Dose-dependent effect
MDA-MB-231 [35]
  Activity: Non-Toxic
MDA-MB-231 [36]
  Activity: Active
PC-3
  IC50: 7.88 µM
